# Results as given in article PMC12074479, “Design, Synthesis, and Biological Evaluation of New Analogs of Aurein 1.2 Containing Non-Proteinogenic Amino Acids” (Molecules, 2025).
# Read-outs that look alike come from different tables or passages of the source. Where a SMILES comes first, the peptide text is derived from it. Where no end group is shown, it is not given here. [ ]: non-standard residue; d: D form. Orn = NCCC[C@H](N)C(=O)O; Dab = NCC[C@H](N)C(=O)O; Dap = NC[C@H](N)C(=O)O
# Columns and labels:
# [1] = in vitro; conditions: mouse, Mean CC50 ± SD
# Description: (§1) An in vitro BALB 3T3 Neutral Red Uptake assay was used to determine the cytotoxicity/phototoxicity of the peptides. Cytotoxicity of peptide analogs was calculated as a percentage relative to the negative control. […] Photo irritation factor (PIF) was used to assess the phototoxic potential of the peptide analogs. The PIF factor represents the ratio between the CC50 values of dark (non-irradiated or—Irr) and irradiated (+Irr) microplates, PIF = (CC50 − Irr)/(CC50 + Irr).
# (§2) Mouse embryonic fibroblasts (BALB 3T3) were used to perform the cytotoxicity and phototoxicity tests. The tests were performed by OECD Guidelines for the Testing of Chemicals, Section 4, Test No. 432. Cells were plated at 1 × 10^4 cells/well in 96-well plates. Cells were incubated in a thermostat for 24 h. Then, the test peptides were added at various working concentrations (4–1000 μM). In the phototoxicity test, 96-well plates were irradiated with a dose of 2.4 J/cm^2 using a solar light simulator Helios-iO (SERIC Ltd., Tokyo, Japan). Cell viability was measured using the BALB 3T3 neutral red uptake test. Cytotoxicity is presented as % relative to the negative control.
# [2] = system: BALB 3T3 cells; assay: in vitro; conditions: for Toxicity compared to the parent peptide aurein 1.2: BALB 3T3 cells, fold lower toxicity
# Description: as §1, §2
# [3] = system: Bacillus subtilis NBIMCC 3562
# Description: (§3) The antimicrobial activity of the 7 new analogs of aurein 1.2 was evaluated by determining the MIC and MBC against Gram-positive strain Bacillus subtilis 3562 and Gram-negative strain Escherichia coli K12 407. The MIC of the newly synthesized analogs was assessed by applying a broth microdilution method, whereas their MBC was determined by using a spread plate method. All experiments were performed in triplicate.
# (§4) Bacillus subtilis NBIMCC 3562 and Escherichia coli NBIMCC K12 407 were used as test microorganisms and were purchased from the National Bank for Industrial Microorganisms and Cell Cultures (NBIMCC, Sofia, Bulgaria). Exponential cultures were obtained in Nutrient broth (NB, HiMedia, Mumbai, India) for B. subtilis NBIMCC 3562 and Luria-Bertani (LB, HiMedia, Mumbai, India) for E. coli NBIMCC K12 407, after cultivation in an incubator shaker ES-20/60 (Biosan, Latvia) at 30/37 °C for 24 h. Then, the turbidity of the microbial cultures was adjusted to the 0.5 McFarland standard using a Grant Bio DEN-1B Densitometer (Grant Instruments, Royston, UK).
# (§5) The antimicrobial activity of the obtained aurein 1.2 analogs was evaluated using the broth microdilution method, recommended by the Clinical and Laboratory Standards Institute (CLSI), to determine the minimum inhibitory concentration (MIC) of the peptides against B. subtilis NBIMCC 3562 and E. coli NBIMCC K12 407. All peptides were previously dissolved in 10% EtOH/H2O, and their 10 mg/mL stock solutions were stored at −20 °C. Bacterial cultures, previously adjusted to 0.5 McFarland standard, were incubated in the presence of different peptide concentrations (0–320 µg/mL) in 96-well polystyrene microplates (Deltalab S.L., Barcelona, Spain) at 30/37 °C for 24 h. The lowest concentration of each peptide, which inhibited bacterial growth, was considered as MIC. In addition, a drop of 20 µL of the 24 h inhibitory concentration test samples was spotted on the corresponding solid media to determine the minimum bactericidal concentration (MBC). […] All experiments were performed in triplicate.
# [4] = system: MCF-7; assay: cells
# Description: (§6) The peptides were studied for antiproliferative activity with an MTT-dye reduction assay. Cell cultures were incubated with the test peptides in twofold increasing concentrations (from 2 to 500 μM) for 72 h.
# (§7) The antiproliferative activity of the peptides was determined in normal epithelial cells (MCF-12F) and tumor cells (MCF-7 and MDA-MB-231) by MTT-assay. Cells were plated 1 × 10^3 cells/100 µL/well of 96-well plates and incubated in a thermostat under standard conditions for 24 h. Cells were then incubated with the tested peptide analogs for 72 h in different concentrations (from 2 to 500 µM). The optical density of the formazan was measured at λ = 540 nm using a microplate reader. Antiproliferative activity was expressed as % from negative control. […] The statistical analysis of the results was performed using one-way ANOVA followed by Bonferroni’s post hoc test by GraphPad Prism 8 software (San Diego, CA, USA).
# [5] = system: MDA-MB-231; assay: cells
# Description: as §6, §7
# [6] = system: MCF-12F; assay: cells; conditions: 72 h
# Description: as §6, §7
# [7] = system: Escherichia coli NBIMCC K12 407
# Description: as §3, §4, §5
# [8] = +Irr, BALB 3T3 cells, irradiated 2.4 J/cm^2, NRU
# [9] = −Irr, BALB 3T3 cells, non-irradiated (dark), NRU
# [10] = broth microdilution, 0–320 µg/mL, 24 h, NI = no inhibition monitored
# [11] = SI = IC50 (normal cells)/IC50 (tumor cells), normal cells MCF-12F
Molecule,CC50 ([1]; +Irr) [µM],PIF (Photo Irritation Factor) [2],"MIC, Bacillus subtilis NBIMCC 3562 ([3]; NBIMCC 3562, 24 h) [µg/mL]",IC50 ([4]; 72 h) [µM],IC50 ([5]; 72 h) [µM],IC50 [6] [µM],"CC50 [1, 8] [µM]","CC50 [1, 9] [µM]","MIC, Escherichia coli NBIMCC K12 407 ([7]; K12, 24 h) [µg/mL]",also measured
"CN(C)CCCN1c2ccccc2Sc2ccc(Cl)cc21 [Chlorpromazine, reference compound]",2.04 ± 0.07,–,–,–,–,–,–,–,–,PIF (Photo Irritation Factor) ([2]; mouse): 6.06
"CC[C@H](C)[C@H](NC(=O)[C@H](CN)NC(=O)[C@H](CN)NC(=O)[C@@H](NC(=O)[C@@H](NC(=O)[C@H](CC(=O)O)NC(=O)[C@H](Cc1ccccc1)NC(=O)[C@H](CC(C)C)NC(=O)CN)[C@@H](C)CC)[C@@H](C)CC)C(=O)N[C@@H](C)C(=O)N[C@@H](CCC(=O)O)C(=O)N[C@@H](CO)C(=O)N[C@@H](Cc1ccccc1)C(N)=O [EH [Dap]^7,8, Gly-Leu-Phe-Asp-Ile-Ile-Dap^7-Dap^8-Ile-Ala-Glu-Ser-Phe-NH2] (H-GLFDII[Dap][Dap]IAESF-NH2)",357.5 ± 3.03,1.01,320,289 ± 19.8,372.2 ± 3.17,308 ± 21.7,–,–,–,Toxicity compared to the parent peptide aurein 1.2 [2]: two to four times lower toxicity
"CC[C@H](C)[C@H](NC(=O)[C@H](CCCN)NC(=O)[C@H](CCCCN)NC(=O)[C@@H](NC(=O)[C@@H](NC(=O)[C@H](CC(=O)O)NC(=O)[C@H](Cc1ccccc1)NC(=O)[C@H](CC(C)C)NC(=O)CN)[C@@H](C)CC)[C@@H](C)CC)C(=O)N[C@@H](C)C(=O)N[C@@H](CCC(=O)O)C(=O)N[C@@H](CO)C(=O)N[C@@H](Cc1ccccc1)C(N)=O [EH [Orn]^8, Gly-Leu-Phe-Asp-Ile-Ile-Lys-Orn^8-Ile-Ala-Glu-Ser-Phe-NH2] (H-GLFDIIK[Orn]IAESF-NH2)",–,–,–,–,–,–,59.5 ± 5.21,75.6 ± 3.33,–,–
"CC[C@H](C)[C@H](NC(=O)[C@H](CCCCN)NC(=O)[C@H](CCN)NC(=O)[C@@H](NC(=O)[C@@H](NC(=O)[C@H](CC(=O)O)NC(=O)[C@H](Cc1ccccc1)NC(=O)[C@H](CC(C)C)NC(=O)CN)[C@@H](C)CC)[C@@H](C)CC)C(=O)N[C@@H](C)C(=O)N[C@@H](CCC(=O)O)C(=O)N[C@@H](CO)C(=O)N[C@@H](Cc1ccccc1)C(N)=O [EH [Dab]^7, Gly-Leu-Phe-Asp-Ile-Ile-Dab^7-Lys-Ile-Ala-Glu-Ser-Phe-NH2] (H-GLFDII[Dab]KIAESF-NH2)",113 ± 5.57,1.40,80,74.4 ± 3.29,125 ± 4.97,92.1 ± 2.12,–,–,80,"MBC, Bacillus subtilis NBIMCC 3562 ([3]; NBIMCC 3562, 24 h): 320 µg/mL"
"GLFDIIKKIAESF-NH2 [Aurein 1.2, Gly^1-Leu^2-Phe^3-Asp^4-Ile^5-Ile^6-Lys^7-Lys^8-Ile^9-Ala^10-Glu^11-Ser^12-Phe^13-NH2]",–,–,–,–,–,–,87.2 ± 1.88,87.6 ± 2.45,–,"PIF (Photo Irritation Factor) ([2]; PIF = (CC50 −Irr)/(CC50 +Irr), PIF < 2 not phototoxic, 2 < PIF < 5 possible phototoxicity, PIF > 5 phototoxic): 1; MIC, Escherichia coli NBIMCC K12 407 [7, 10]: 40 µg/mL; MIC, Bacillus subtilis NBIMCC 3562 [3, 10]: 160 µg/mL; IC50 ([4]; read-out: Mean IC50 ± SD, MCF-7, MTT, 72 h): 68.9 ± 2.12 µM; IC50 ([5]; read-out: Mean IC50 ± SD, MDA-MB-231, MTT, 72 h): 70.9 ± 2.06 µM; IC50 ([6]; read-out: Mean IC50 ± SD, MCF-12F, MTT, normal cell line): 71.4 ± 2.88 µM"
"CC[C@H](C)[C@H](NC(=O)[C@H](CCN)NC(=O)[C@H](CCN)NC(=O)[C@@H](NC(=O)[C@@H](NC(=O)[C@H](CC(=O)O)NC(=O)[C@H](Cc1ccccc1)NC(=O)[C@H](CC(C)C)NC(=O)CN)[C@@H](C)CC)[C@@H](C)CC)C(=O)N[C@@H](C)C(=O)N[C@@H](CCC(=O)O)C(=O)N[C@@H](CO)C(=O)N[C@@H](Cc1ccccc1)C(N)=O [EH [Dab]^7,8, Gly-Leu-Phe-Asp-Ile-Ile-Dab^7-Dab^8-Ile-Ala-Glu-Ser-Phe-NH2] (H-GLFDII[Dab][Dab]IAESF-NH2)",181.1 ± 1.81,1.11,160,92.2 ± 1.8,164 ± 2.51,168 ± 2.54,–,–,160,Toxicity compared to the parent peptide aurein 1.2 [2]: two to four times lower toxicity
"COc1cccc2c1C(=O)c1c(O)c3c(c(O)c1C2=O)C[C@@](O)(C(=O)CO)C[C@@H]3O[C@H]1C[C@H](N)[C@H](O)[C@H](C)O1 [Doxorubicin, reference compound]",–,–,–,–,–,–,–,–,–,"IC50 ([4]; Homo sapiens, MCF7, 72 h, read-out: Mean IC50 ± SD, MCF-7): 0.68 ± 0.031 µM; SI, MCF-7 [4, 11]: 0.88; IC50 ([5]; Homo sapiens, MDA-MB-231, 72 h, read-out: Mean IC50 ± SD, MDA-MB-231): 2.53 ± 0.11 µM; SI, MDA-MB-231 [5, 11]: 0.237; IC50 ([6]; Homo sapiens, read-out: Mean IC50 ± SD, MCF-12F): 0.601 ± 0.059 µM"
"CC[C@H](C)[C@H](NC(=O)[C@H](CCCCN)NC(=O)[C@H](CCCN)NC(=O)[C@@H](NC(=O)[C@@H](NC(=O)[C@H](CC(=O)O)NC(=O)[C@H](Cc1ccccc1)NC(=O)[C@H](CC(C)C)NC(=O)CN)[C@@H](C)CC)[C@@H](C)CC)C(=O)N[C@@H](C)C(=O)N[C@@H](CCC(=O)O)C(=O)N[C@@H](CO)C(=O)N[C@@H](Cc1ccccc1)C(N)=O [EH [Orn]^7, Gly-Leu-Phe-Asp-Ile-Ile-Orn^7-Lys-Ile-Ala-Glu-Ser-Phe-NH2] (H-GLFDII[Orn]KIAESF-NH2)",–,–,–,–,–,–,102 ± 7.4,134 ± 7.4,–,–
"CC[C@H](C)[C@H](NC(=O)[C@H](CCN)NC(=O)[C@H](CCCCN)NC(=O)[C@@H](NC(=O)[C@@H](NC(=O)[C@H](CC(=O)O)NC(=O)[C@H](Cc1ccccc1)NC(=O)[C@H](CC(C)C)NC(=O)CN)[C@@H](C)CC)[C@@H](C)CC)C(=O)N[C@@H](C)C(=O)N[C@@H](CCC(=O)O)C(=O)N[C@@H](CO)C(=O)N[C@@H](Cc1ccccc1)C(N)=O [EH [Dab]^8, Gly-Leu-Phe-Asp-Ile-Ile-Lys-Dab^8-Ile-Ala-Glu-Ser-Phe-NH2] (H-GLFDIIK[Dab]IAESF-NH2)",81.4 ± 2.34,1.13,80,67.2 ± 2.57,79.7 ± 1.78,68.3 ± 3.51,–,–,80,"MBC, Bacillus subtilis NBIMCC 3562 ([3]; NBIMCC 3562, 24 h): 320 µg/mL"
